# Assay results reported in patent US6737409B2, “Dolastatin 10 derivatives” (Hoffmann-La Roche Inc., priority 2001, dated 2004).
# pIC50: −log10 of the molar value. Like-named read-outs stand apart in the source and are kept apart here.
# Assays:
# [1] = system: HCT 116; experiment: Antiproliferative activity assay (WST-8); type: cell-based; settings: Homo sapiens, HCT-116, 96 h; for IC50: read-out: HCT 116 IC50 (nM); for pIC50: incubated 4 days, WST-8, concentration of drug yielding 50% OD of the control growth, read-out: HCT 116 IC50
# Protocol: Antiproliferative activity assay was carried out as follows. A single suspension of tumor cells was inoculated to the serially diluted 96-well microtestplate. Then the testplate was incubated in the 5% CO2 ambience at 37° C. for 4 days (2-3×10^3 cells/well). The degree of cell growth in a monolayer was measured by using WST-8 (Dojindo, Japan). IC50 values of drugs against tumor cells were calculated as the concentration of drug yielding 50% OD of the control growth.
# [2] = Maximum tolerated dose (MTD) by i.v. administration in mice; settings: mouse, in vivo, iv, read-out: maximum tolerated doses (MTD)
# Protocol: The maximum tolerated doses (MTD) of the following representative compounds
# of the present invention were examined by i.v. administration in mice. The respective MTD values of the compounds were 14, 18, 10, 8, 8, 2 and 2 mg/kg.
Structure (SMILES),IC50 [1],MTD [2],pIC50 [1]
"CCSC(C(C)C(=O)NCCc1cccc(O)c1)C1CCCN1C(=O)CC(OC)C(C(C)CC)N(C)C(=O)C(NC(=O)C(C(C)C)N(C)C)C(C)C (single isomer, unassigned) [N-(1-{[1-sec-Butyl-4-(2-{1-ethylsulfanyl-2-[2-(3-hydroxy-phenyl)-ethylcarbamoyl]-propyl}-pyrrolidin-1-yl)-2-methoxy-4-oxo-butyl]-methyl-carbamoyl}-2-methyl-propyl)-2-dimethylamino-3-methyl-butyramide]",0.84 nM,2 mg/kg,–
"CCC(C)C(C(CC(=O)N1CCCC1C(SC)C(C)C(=O)NCCc1cccc(O)c1)OC)N(C)C(=O)C(NC(=O)C(C(C)C)N(C)C)C(C)C (single isomer, unassigned) [N-(1-{[1-sec-Butyl-4-(2-{2-[2-(3-hydroxy-phenyl)-ethylcarbamoyl]-1-methylsulfanyl-propyl}-pyrrolidin-1-yl)-2-methoxy-4-oxo-butyl]-methyl-carbamoyl}-2-methyl-propyl)-2-dimethylamino-3-methyl-butyramide]",0.19 nM,2 mg/kg,–
"CCSC(C(C)C(=O)N(C)CCc1cccc(O)c1)C1CCCN1C(=O)CC(OC)C(C(C)CC)N(C)C(=O)C(NC(=O)C(C(C)C)N(C)C)C(C)C (single isomer, unassigned) [N-[1-({1-sec-Butyl-4-[2-(1-ethylsulfanyl-2-{[2-(3-hydroxy-phenyl)-ethyl]-methyl-carbamoyl}-propyl)-pyrrolidin-1-yl]-2-methoxy-4-oxo-butyl}-methyl-carbamoyl)-2-methyl-propyl]-2-dimethylamino-3-methyl-butyramide]",–,8 mg/kg,9.96
"CCC(C)C(C(CC(=O)N1CCCC1C(SC)C(C)C(=O)N(C)CCc1cccc(O)c1)OC)N(C)C(=O)C(NC(=O)C(C(C)C)N(C)C)C(C)C (single isomer, unassigned) [N-[1-({1-sec-Butyl-4-[2-(2-{[2-(3-hydroxy-phenyl)-ethyl]-methyl-carbamoyl}-1-methylsulfanyl-propyl)-pyrrolidin-1-yl]-2-methoxy-4-oxo-butyl}-methyl-carbamoyl)-2-methyl-propyl]-2-dimethylamino-3-methyl-butyramide]",–,8 mg/kg,9.18
CCC(C)C(C(CC(=O)N1CCCC1C(CC(=O)NCCc1ccccc1)SC)OC)N(C)C(=O)C(NC(=O)C(NC)C(C)C)C(C)C (stereo not drawn) [N-[1-({1-sec-Butyl-2-methoxy-4-[2-(1-methylsulfanyl-2-phenethylcarbamoylethyl)pyrrolidin-1-yl]-4-oxo-butyl}-methyl-carbamoyl)-2-methyl-propyl]-3-methyl-2-methylamino-butyramide],–,14 mg/kg,9.92
CCC(C)C(C(CC(=O)N1CCCC1C(CC(=O)NCCc1ccccc1)SC(C)C)OC)N(C)C(=O)C(NC(=O)C(NC)C(C)C)C(C)C (stereo not drawn) [N-[1-({1-sec-Butyl-4-[2-(1-isopropylsulfanyl-2-phenethylcarbamoyl-ethyl)-pyrrolidin-1-yl]-2-methoxy-4-oxo-butyl}-methyl-carbamoyl)-2-methyl-propyl]-3-methyl-2-methylamino-butyramide],–,10 mg/kg,9.19
CCC(C)C(C(CC(=O)N1CCCC1C(CC(=O)NCCc1ccccc1)S(C)(=O)=O)OC)N(C)C(=O)C(NC(=O)C(NC)C(C)C)C(C)C (stereo not drawn) [N-[1-({1-sec-Butyl-4-[2-(1-methanesulfonyl-2-phenethylcarbamoyl-ethyl)-pyrrolidin-1-yl]-2-methoxy-4-oxo-butyl}-methyl-carbamoyl)-2-methyl-propyl]-3-methyl-2-methylamino-butyramide],–,18 mg/kg,9.11
CCC(C)C(C(CC(=O)N1CCCC1C(CC(=O)NCCc1cccnc1)SC)OC)N(C)C(=O)C(NC(=O)C(C(C)C)N(C)C)C(C)C (stereo not drawn) [N-{1-[(1-sec-Butyl-2-methoxy-4-{2-[1-methylsulfanyl-2-(2-pyridin-3-yl-ethylcarbamoyl)-ethyl]-pyrrolidin-1-yl}-4-oxo-butyl)-methyl-carbamoyl]-2-methyl-propyl}-2-dimethylamino-3-methyl-butyramide],–,–,9.04
CCC(C)C(C(CC(=O)N1CCCC1C(CC(=O)NCCc1cccs1)SC)OC)N(C)C(=O)C(NC(=O)C(C(C)C)N(C)C)C(C)C (stereo not drawn) [N-{1-[(1-sec-Butyl-2-methoxy-4-{2-[1-methylsulfanyl-2-(2-thiophen-2-yl-ethylcarbamoyl)-ethyl]-pyrrolidin-1-yl}-4-oxo-butyl)-methyl-carbamoyl]-2-methyl-propyl}-2-dimethylamino-3-methyl-butyramide],–,–,9.30
CCC(C)C(C(CC(=O)N1CCCC1C(CC(=O)N(C)CCc1ccccc1)SC)OC)N(C)C(=O)C(NC(=O)C(C(C)C)N(C)C)C(C)C (stereo not drawn) [N-{1-[(1-sec-Butyl-2-methoxy-4-{2-[2-(methyl-phenethyl-carbamoyl)-1-methylsulfanyl-ethyl]-pyrrolidin-1-yl}-4-oxo-butyl)-methyl-carbamoyl]-2-methyl-propyl}-2-dimethylamino-3-methyl-butyramide],–,–,9.06
CCC(C)C(C(CC(=O)N1CCCC1C(CC(=O)NCCc1ccccc1)SCCO)OC)N(C)C(=O)C(NC(=O)C(C(C)C)N(C)C)C(C)C (stereo not drawn) [N-{1-[(1-sec-Butyl-4-{2-[1-(2-hydroxy-ethylsulfanyl)-2-phenethylcarbamoyl-ethyl]-pyrrolidin-1-yl}-2-methoxy-4-oxo-butyl)-methyl-carbamoyl]-2-methyl-propyl}-2-dimethylamino-3-methyl-butyramide],–,–,9.41
CCC(C)C(C(CC(=O)N1CCCC1C(CC(=O)NCCc1ccccc1)Sc1cccc(O)c1)OC)N(C)C(=O)C(NC(=O)C(C(C)C)N(C)C)C(C)C (stereo not drawn) [N-{1-[(1-sec-Butyl-4-{2-[1-(3-hydroxy-phenylsulfanyl)-2-phenethylcarbamoyl-ethyl]-pyrrolidin-1-yl}-2-methoxy-4-oxo-butyl)-methyl-carbamoyl]-2-methyl-propyl}-2-dimethylamino-3-methyl-butyramide],–,–,9.52
CCC(C)C(C(CC(=O)N1CCCC1[C@@H](CC(=O)NCCc1ccccc1)Sc1ccc(O)cc1)OC)N(C)C(=O)C(NC(=O)C(C(C)C)N(C)C)C(C)C (stereo partly drawn) [N-{1-[(1-sec-Butyl-4-{2-[1-(R)-(4-hydroxy-phenylsulfanyl)-2-phenethylcarbamoyl-ethyl]-pyrrolidin-1-yl}-2-methoxy-4-oxo-butyl)-methyl-carbamoyl]-2-methyl-propyl}-2-dimethylamino-3-methyl-butyramide],–,–,9.22
CCC(C)C(C(CC(=O)N1CCCC1C(CC(=O)NCCc1ccccc1)Sc1ccc(NC(C)=O)cc1)OC)N(C)C(=O)C(NC(=O)C(C(C)C)N(C)C)C(C)C (stereo not drawn) [N-{1-[(4-{2-[1-(4-Acetylamino-phenylsulfanyl)-2-phenethylcarbamoyl-ethyl]-pyrrolidin-1-yl}-1-sec-butyl-2-methoxy-4-oxo-butyl)-methyl-carbamoyl]-2-methyl-propyl}-2-dimethylamino-3-methyl-butyramide],–,–,9.01
